Like-named read-outs stand apart in the source and are kept apart here.
Experiments:
[1] = target: T1, CIB1 and αIIb interaction (CIB1-GST : F-αIIb peptide) (Homo sapiens, UniProt Q99828); test: FP assay, 1536-well qHTS format (primary and confirmatory screen); type: binding
T1 construct: made in house; host or cells: BL-21 plus RIL cells (E. coli)
T1 sequence (Q99828 1-191): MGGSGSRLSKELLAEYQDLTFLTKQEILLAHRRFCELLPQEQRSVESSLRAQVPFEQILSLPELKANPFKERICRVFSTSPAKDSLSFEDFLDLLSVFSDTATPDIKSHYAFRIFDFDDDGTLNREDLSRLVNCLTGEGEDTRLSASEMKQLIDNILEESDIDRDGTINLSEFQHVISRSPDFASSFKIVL

[2] = target: T2, GST-CIB1 : F-scrambled peptide (Homo sapiens, UniProt Q99828); test: FP scrambled-peptide counter screen, 1536-well format; type: binding; conditions: for Confirm? (counterscreen): YES/NO
T2 construct: made in house; host or cells: BL-21 plus RIL cells (E. coli)
T2 sequence (Q99828 1-191): T1 sequence (Q99828 1-191)

[3] = confirmatory screen, qHTS curve class, negative sign = inhibitory curve
[4] = confirmatory screen, read-out: IC50 [μM] (confirmatory screen)
[5] = qHTS FP screen hits, Table S2, negative = inhibition
[6] = qHTS FP screen hits, Table S2, read-out: IC50
[7] = counterscreen, qHTS curve class, negative sign = inhibitory curve
[8] = counterscreen, read-out: IC50 [μM] (counterscreen)
[9] = Table S3, confirmatory screen, qHTS curve class, a negative sign marks inhibitory curves
[10] = Table S3, confirmatory screen, negative = inhibition
[11] = qHTS primary screen hits, Table S2, negative = inhibition
[12] = qHTS primary screen hits, Table S2, negative sign = inhibitory curve
[13] = qHTS primary screen hits, Table S2, read-out: IC50
[14] = Table S3, counterscreen, qHTS curve class, a negative sign marks inhibitory curves
[15] = Table S3, counterscreen, negative = inhibition
[16] = qHTS FP screen hits, Table S2, one class per curve where COUNT > 1, negative sign = inhibitory curve
[17] = qHTS primary screen hits, Table S2, negative sign = inhibitory curve, several classes where COUNT > 1
[18] = Table S3, counterscreen, read-out: IC50 [μM] (counterscreen)

SMILES | Efficacy (%) (confirmatory screen) ([1]; confirmatory screen) | Confirm? (confirmatory screen) ([1]; confirmatory screen, YES/NO) | Curve Class (confirmatory screen) [1, 3] | IC50 [1, 4] [µM] | Efficacy (%) [1, 5] [%] | IC50 [1, 6] [µM] | Efficacy (%) (counterscreen) ([2]; counterscreen) | Curve Class (counterscreen) [2, 7] | IC50 [2, 8] [µM] | Efficacy (%) [1, 11] [%] | IC50 [1, 13] [µM] | other results
O=c1[nH]c(=O)c2nc3ccccc3nc2[nH]1 [NCGC00015021-05] | -58 | YES | -2.2 | 44.7 | -54 | 33.5 | -65 | -2.2 | 35.5 |  |  | 
COc1ccc2c(c[n+](C)c3c4cc5c(cc4ccc23)OCO5)c1OC.[Cl-] [NCGC00015225-03] | -56 | YES | -1.4 | 11.2 |  |  | -55 | -2.2 | 28.2 |  |  | 
C=CC1=C(C)c2cc3[nH]c(cc4nc(cc5[nH]c(cc1n2)c(C)c5CCC(=O)O)C(CCC(=O)O)=C4C)c(C)c3C=C [NCGC00015844-07] | -112 | YES | -1.1 | 25.1 |  |  | -94 | -2.2 | 25.1 |  |  | 
O=c1c(O)c(-c2ccc(O)c(O)c2)oc2cc(O)cc(O)c12 [NCGC00015870-16] | -32 | YES | -2.4 |  |  |  | -31 | 4 |  |  |  | Confirm? (counterscreen) ([2]; counterscreen): YES
C[n+]1cc2c3c(ccc2c2ccc4cc5c(cc4c21)OCO5)OCO3.[Cl-] [NCGC00015959-09] |  |  |  |  |  |  |  |  |  | -124 | 14.1 | Curve Class (confirmatory screen) [1, 9]: 4; Efficacy (%) (confirmatory screen) [1, 10]: 0%; Curve Class [1, 12]: -1.1; Curve Class (counterscreen) [2, 14]: 4; Efficacy (%) (counterscreen) [2, 15]: 0%
Cl.N=C(NCCCCCCNC(=N)NC(=N)Nc1ccc(Cl)cc1)NC(=N)Nc1ccc(Cl)cc1 [NCGC00016246-13] | -57 | YES | -2.2 | 35.5 | -37 | 50.1 | -37 | -1.2 | 22.4 |  |  | Curve Class [1, 16]: -2.2
C=C(CC)C(=O)c1ccc(OCC(=O)O)c(Cl)c1Cl [NCGC00016260-13] | -56 | YES | -2.4 | 44.7 | -28 | 1.3 | 0 | 4 |  |  |  | Curve Class [1, 16]: -1.2; Confirm? (counterscreen) ([2]; counterscreen): YES
Nc1ccc(O)c(C(=O)O)c1 [NCGC00016344-07] |  |  |  |  |  |  |  |  |  | -58 |  | Curve Class (confirmatory screen) [1, 9]: 4; Efficacy (%) (confirmatory screen) [1, 10]: -27%; Curve Class [1, 17]: -2.2; Efficacy (%) (counterscreen) [2, 15]: 154%
CN(C(=O)CN(CCO)CC(=O)N(C)C(C)(C)Cc1ccccc1)C(C)(C)Cc1ccccc1 [NCGC00016382-07] | -52 | YES | -3 | 79.4 | -59 | 28.2 | -33 | -2.4 | 70.8 |  |  | Curve Class [1, 16]: -3
CCCCCCCCCCCCCCCC[N+](C)(C)CCN(Cc1ccc(OC)cc1)c1ncccn1.[Br-] [NCGC00016507-05] |  |  |  |  |  |  |  |  |  | -71 | 79.4 | Curve Class (confirmatory screen) [1, 9]: 4; Efficacy (%) (confirmatory screen) [1, 10]: -36%; Curve Class [1, 12]: -2.2; Curve Class (counterscreen) [2, 14]: 3; Efficacy (%) (counterscreen) [2, 15]: 100%; IC50 [2, 18]: 89.1 µM
COc1ccc2[nH]c([S+]([O-])Cc3ncc(C)c(OC)c3C)nc2c1 (centres unmarked) [NCGC00016925-10] |  |  |  |  |  |  |  |  |  | -35 | 10.8 | Confirm? (confirmatory screen) ([1]; Table S3, confirmatory screen, YES/NO call): YES; Curve Class (confirmatory screen) [1, 9]: -1.2; Efficacy (%) (confirmatory screen) [1, 10]: -58%; IC50 ([1]; Table S3, confirmatory screen, read-out: IC50 [μM] (confirmatory screen)): 28.2 µM; Curve Class [1, 17]: -2.2; Curve Class (counterscreen) [2, 14]: -2.2; Efficacy (%) (counterscreen) [2, 15]: -57%; IC50 [2, 18]: 35.5 µM
O=c1cc(-c2ccccc2)oc2cc(O)c(O)c(O)c12 [NCGC00017236-08] | -112 |  |  | 39.8 |  |  | -64 |  | 39.8 | -30 | 34.1 | 
CN1C[C@H](CNC(=O)OCc2ccccc2)C[C@@H]2c3cccc4c3c(cn4C)C[C@H]21 [NCGC00017257-10] | -126 | YES | -2.1 | 44.7 | -75 | 36.4 | -32 | -2.4 | 63.1 |  |  | Confirm? (counterscreen) ([2]; counterscreen): YES
O=C(O)c1cc(O)c2c(c1)C(=O)c1cccc(O)c1C2=O [NCGC00018199-06] | -66 | YES | -1.2 |  |  |  | -61 | -1.2 |  | -32 |  | Curve Class [1, 17]: -2.2
CC(=O)Oc1cccc2c1C(=O)c1c(OC(C)=O)cc(C(=O)O)cc1C2=O [NCGC00018274-05] |  |  |  |  |  |  |  |  |  | -39 | 39.8 | CONFIRMATORY SCREEN Confirm? ([1]; confirmatory screen, YES/NO call): YES; CONFIRMATORY SCREEN Curve Class [1, 3]: -1.4; CONFIRMATORY SCREEN Efficacy (%) ([1]; confirmatory screen, negative = inhibition): -50%; IC50 ([1]; confirmatory screen, read-out: CONFIRMATORY SCREEN IC50): 11.2 µM; Curve Class [1, 17]: -2.4; COUNTERSCREEN Efficacy (%) ([2]; scrambled-peptide counterscreen): -53%; COUNTERSCREEN Confirm? ([2]; scrambled-peptide counterscreen, YES/NO call): YES; COUNTERSCREEN Curve Class ([2]; scrambled-peptide counterscreen, qHTS curve class): -2.4; IC50 ([2]; scrambled-peptide counterscreen, read-out: COUNTERSCREEN IC50): 50.1 µM
CC[C@@H](CO)NC(=O)[C@@H]1C=C2c3cccc4c3c(cn4C)C[C@H]2N(C)C1.O=C(O)/C=C\C(=O)O [NCGC00024027-06] | -88 | YES | -2.2 | 44.7 |  |  | -73 | -3 | 89.1 |  |  | 
CN(C)CCCn1cc(C2=C(c3c[nH]c4ccccc34)C(=O)NC2=O)c2ccccc21 [NCGC00024760-07] | -63 | YES | -2.2 | 44.7 | -53 | 39.8 | -54 | -2.2 | 35.5 |  |  | Curve Class [1, 16]: -2.2
CN1CCc2cccc3c2[C@H]1Cc1ccc(O)c(O)c1-3 [NCGC00025349-05] |  |  |  |  |  |  |  |  |  | -58 | 12.6 | Curve Class (confirmatory screen) [1, 9]: 4; Efficacy (%) (confirmatory screen) [1, 10]: -17%; Curve Class [1, 17]: -2.4; Curve Class (counterscreen) [2, 14]: 4; Efficacy (%) (counterscreen) [2, 15]: -34%
CCOC(=O)c1cc(-c2ccco2)nc2c1c(C)nn2CCC#N.O=C(O)C(F)(F)F [NCGC00037529-03] | -61 | YES | -2.2 | 50.1 | -27 | 39.8 | -56 | -2.4 | 56.2 |  |  | 
CCOC(=O)c1c(-c2ccc(C)o2)csc1NC(=O)CSc1nnnn1-c1ccccc1.O=C(O)C(F)(F)F [NCGC00041785-02] | -47 | YES | -2.2 | 39.8 |  |  | -23 | 4 |  | -58 | 28.2 | Curve Class [1, 17]: -1.2; Confirm? (counterscreen) ([2]; counterscreen): YES
CC(=O)NC(Cc1ccccc1)C(=O)O (centres unmarked) [NCGC00042134-05] |  |  |  |  | -47 | 100 |  |  |  |  |  | Curve Class (confirmatory screen) [1, 9]: 4; Efficacy (%) (confirmatory screen) [1, 10]: 0%; Curve Class [1, 16]: -2.2; Curve Class (counterscreen) [2, 14]: 4; Efficacy (%) (counterscreen) [2, 15]: -35%
O=C1c2cccc(O)c2C(=O)c2c(O)cccc21 [NCGC00091367-05] |  |  |  |  |  |  | -17 | 4 |  |  |  | Confirm? (counterscreen) ([2]; counterscreen): YES
COc1cccc(CNC(=O)C2=NC3SC=C(COCc4ccc(C(=O)O)cc4)C3C(=O)N2)c1 (centres unmarked) [NCGC00488702-01] |  |  |  |  |  |  |  |  |  |  |  | Efficacy (%) ([1]; qHTS primary screen of LOPAC/NPACT libraries, negative = inhibition): -27%; Curve Class ([1]; qHTS primary screen of LOPAC/NPACT libraries, negative sign = inhibitory curve): -1.4; IC50 ([1]; qHTS primary screen of LOPAC/NPACT libraries, read-out: IC50): 5.6 µM
